Data published in article PMC7004151, “Synthesis and Structure‐Activity Relationships of N‐(4‐Benzamidino)‐Oxazolidinones: Potent and Selective Inhibitors of Kallikrein‐Related Peptidase 6” (Chemmedchem, 2019).
≈ marks a conversion by molar mass, not a printed value.

Assays:
Thermodynamic solubility = format: physicochemical; settings: thermodynamic from solid, Milli-Q water, 37 °C
Method: Thermodynamic solubility: Test compound (3 mg) is accurately weighed into a Micronics tube. Extra tubes for each control compound, Warfarin (high solubility control) and Cinnarizine (low solubility control) were also accurately weighed. To each tube is added 1 mL of Milli‐Q water. All samples are vortexed for 20 s and placed in a bench top incubator shaker set at 1300 rpm at 37 °C for 5 h. After the incubation, samples are centrifuged at 10,000 rpm for 3 min. 100 μL aliquots of the supernatant in duplicate were placed in a 96‐well plate. All samples, calibration standards and QC samples are analyzed using a validated HPLC method on the Dionex Ultramate 3000 HPLC system. The concentration determined from the supernatant was then reported as the solubility of each compound in μg/mL.

[1] = Microsomal intrinsic clearance, mouse liver microsomes; format: in vitro ADME
Method: Immediately, at time zero, then at 3, 6, 9, 15 and 30 min an aliquot (50 μL) of the incubation mixture was removed and mixed with acetonitrile (100 μL) to stop the reaction. Internal standard was added to all samples, the samples centrifuged to sediment precipitated protein and the plates then sealed prior to UPLC‐MS/MS analysis using a Quattro Premier XE (Waters Corporation, USA). XLfit (IDBS, UK) was used to calculate the exponential decay and consequently the rate constant (k) from the ratio of peak area of test compound to internal standard at each timepoint. The rate of intrinsic clearance (CLint) of each test compound was then calculated using the following calculation: CLint (mL/min/g liver)=k×V×Microsomal protein yield. Where V (mL/mg protein) is the incubation volume/mg protein added and microsomal protein yield is taken as 52.5 mg protein/g liver. Verapamil (0.5 μM) was used as a positive control to confirm acceptable assay performance.

KLK6 = KLK6 (Homo sapiens, UniProt Q92876); assay: KLK6 enzymatic inhibition assay (fluorogenic Boc-Phe-Ser-Arg-AMC substrate); format: biochemical; parameters: made in house
Method: Using our previously published KLK6 assay format,21 we performed a HTS with the European Lead Factory (ELF),22 and tested ∼350,000 substances at 10 μM for their ability to reduce KLK6‐catalyzed hydrolysis of the fluorogenic Boc‐Phe‐Ser‐Arg‐AMC peptide.
High Throughput Screen: The European Lead Factory library of ∼350,000 compounds was used for high throughput screening at the Pivot Park Screening Center facilities in Oss, The Netherlands. […] For SPR, Biacore T200 was used and KLK6 was immobilized onto a CM5 chip. […] An 8 point 1 in 3 dilution series of 1 (50 μM to 0.02 μM) was also applied at the beginning and end of each screening day.
Enzyme inhibition assays: All chemicals were purchased from Sigma Aldrich (Gillingham, UK) unless otherwise stated.

CYP3A4 = biological target: T1, CYP3A4 (Homo sapiens, UniProt P08684); assay: Fluorescence-based CYP inhibition, CYP bactosomes; format: in vitro ADME; settings: read-out: CYP Inhibition IC50 3A4
T1 construct: purchased Cypex; host or cells: bacterial membranes (bactosomes)
T1 sequence (P08684 whole entry): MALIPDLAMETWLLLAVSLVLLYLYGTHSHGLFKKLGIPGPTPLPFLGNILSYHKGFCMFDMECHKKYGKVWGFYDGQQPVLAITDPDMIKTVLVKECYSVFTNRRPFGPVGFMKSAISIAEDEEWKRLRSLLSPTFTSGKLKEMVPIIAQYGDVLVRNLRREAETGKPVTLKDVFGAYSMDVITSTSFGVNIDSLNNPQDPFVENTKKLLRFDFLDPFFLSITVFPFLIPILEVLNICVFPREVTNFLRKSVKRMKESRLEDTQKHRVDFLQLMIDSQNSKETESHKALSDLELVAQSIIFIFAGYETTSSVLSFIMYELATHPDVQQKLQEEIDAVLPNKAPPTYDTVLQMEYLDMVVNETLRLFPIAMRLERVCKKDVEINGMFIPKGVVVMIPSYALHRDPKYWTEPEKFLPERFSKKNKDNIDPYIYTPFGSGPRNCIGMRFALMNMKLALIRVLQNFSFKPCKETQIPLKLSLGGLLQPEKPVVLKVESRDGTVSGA
Method: (§1) Fluorescence-based CYP Inhibition using recombinantly expressed CYP bactosomes: Fluorescence CYP inhibition studies were conducted at 37 °C in 96-well, flat-bottom, clear polystyrene plates. Incubation mixtures containing […] bactosomes (1000 pmol/mL, 10 mg/mL Cypex TM), fluorigenic substrate (Cypex TM) and 50 mM potassium phosphate buffer (pH 7.4) were prepared at the following final concentrations: CYP1A2, 5 pmol/mL+0.5 μM Ethoxyresorufin (ER); […] Bactosome control protein was included in reactions to give a final concentration of 0.025 mg/mL. Reaction times were verified to be within the limits of kinetics linearity. For each isoform, 220 μL of incubation mix was added to each well of a 96-well, flat-bottom, clear polystyrene plate. […] Reactions were initiated by the addition of 25 μL regenerating cofactor solution (23 mM Glucose-6-Phosphate, 2.2 mM NADP, 6 Units per ml Glucose-6-Phosphate Dehydrogenase (from Baker's yeast S. cerevisiae) in 2 % w/v NaHCO3, Sigma) and subsequent production of fluorescence metabolite measured at 1 min intervals over a 10 min period using a BMG Optima fluorescence detector (ER: Exc 530 nm, Em 590 nm, MFC: Exc 410 nm, Em 530 nm, CEC: Exc 410 nm, Em 530 nm, MAMC: Exc 405 nm, Em 460 nm, DEF: Exc 405 nm, Em 560 nm, 7BQ: Exc 485 nm, Em 530 nm). Fluorescence responses were adjusted to a percentage of uninhibited control before plotting against compound concentration and deriving the IC50 by fitting to a 4 parameter logistic regression model.

CYP1A2 = biological target: T2, CYP1A2 (Homo sapiens, UniProt P05177); assay: Fluorescence-based CYP inhibition, CYP bactosomes; format: in vitro ADME; settings: read-out: CYP Inhibition IC50 1A2
T2 construct: purchased Cypex; host or cells: bacterial membranes (bactosomes)
T2 sequence (P05177 1-516): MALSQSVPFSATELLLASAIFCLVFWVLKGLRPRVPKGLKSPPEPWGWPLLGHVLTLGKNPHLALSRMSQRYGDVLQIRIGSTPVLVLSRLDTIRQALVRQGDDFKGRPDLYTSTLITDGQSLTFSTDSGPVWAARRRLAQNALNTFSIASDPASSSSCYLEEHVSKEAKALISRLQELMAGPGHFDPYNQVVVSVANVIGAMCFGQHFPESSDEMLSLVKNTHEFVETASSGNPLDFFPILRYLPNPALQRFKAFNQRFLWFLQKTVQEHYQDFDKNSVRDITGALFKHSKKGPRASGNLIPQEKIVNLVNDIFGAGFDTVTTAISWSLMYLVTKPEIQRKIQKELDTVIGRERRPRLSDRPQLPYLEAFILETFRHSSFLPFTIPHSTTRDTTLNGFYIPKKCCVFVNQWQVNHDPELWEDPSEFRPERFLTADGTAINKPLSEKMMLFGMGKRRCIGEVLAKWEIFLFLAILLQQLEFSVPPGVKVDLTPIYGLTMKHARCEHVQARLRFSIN
Method: as §1

CYP2C9 = biological target: T3, CYP2C9 (Homo sapiens, UniProt P11712); assay: Fluorescence-based CYP inhibition, CYP bactosomes; format: in vitro ADME; settings: read-out: CYP Inhibition IC50 2C9
T3 construct: purchased Cypex; host or cells: bacterial membranes (bactosomes)
T3 sequence (P11712 whole entry): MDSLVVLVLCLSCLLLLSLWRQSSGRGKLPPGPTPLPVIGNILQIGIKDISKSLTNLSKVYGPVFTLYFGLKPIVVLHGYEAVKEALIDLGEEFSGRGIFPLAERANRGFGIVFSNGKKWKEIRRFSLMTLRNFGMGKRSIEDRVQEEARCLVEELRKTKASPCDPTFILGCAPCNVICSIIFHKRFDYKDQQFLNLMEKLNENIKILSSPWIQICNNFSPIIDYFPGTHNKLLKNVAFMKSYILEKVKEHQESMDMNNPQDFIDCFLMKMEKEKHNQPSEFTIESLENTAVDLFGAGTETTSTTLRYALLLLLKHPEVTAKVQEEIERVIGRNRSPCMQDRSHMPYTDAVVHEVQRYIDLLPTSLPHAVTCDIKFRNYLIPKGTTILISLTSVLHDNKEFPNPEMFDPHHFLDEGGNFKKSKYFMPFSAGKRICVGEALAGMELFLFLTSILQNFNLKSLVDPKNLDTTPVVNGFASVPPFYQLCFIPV
Method: as §1

CYP2C19 = biological target: T4, CYP2C19 (Homo sapiens, UniProt P33261); assay: Fluorescence-based CYP inhibition, CYP bactosomes; format: in vitro ADME; settings: recombinantly expressed CYP bactosomes (EasyCYP), pH 7.4, probe 3-Cyano-7-Ethoxycoumarin (CEC), 25 μM, read-out: CYP Inhibition IC50 2C19
T4 construct: purchased Cypex; host or cells: bacterial membranes (bactosomes)
T4 sequence (P33261 whole entry): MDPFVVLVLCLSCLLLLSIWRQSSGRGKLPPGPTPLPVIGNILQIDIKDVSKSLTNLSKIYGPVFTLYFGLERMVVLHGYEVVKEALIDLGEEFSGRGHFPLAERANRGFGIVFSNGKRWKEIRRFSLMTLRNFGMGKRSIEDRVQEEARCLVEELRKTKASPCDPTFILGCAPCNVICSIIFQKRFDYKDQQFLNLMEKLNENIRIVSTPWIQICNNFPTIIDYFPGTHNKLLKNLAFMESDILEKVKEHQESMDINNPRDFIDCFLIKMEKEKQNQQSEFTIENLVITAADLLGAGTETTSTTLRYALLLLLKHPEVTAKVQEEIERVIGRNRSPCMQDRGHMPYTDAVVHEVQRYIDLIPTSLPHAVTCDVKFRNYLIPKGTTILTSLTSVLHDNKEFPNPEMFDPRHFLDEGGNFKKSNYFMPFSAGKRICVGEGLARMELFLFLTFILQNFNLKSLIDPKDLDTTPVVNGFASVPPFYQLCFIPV
Method: as §1

CYP2D6 = biological target: T5, CYP2D6 (Homo sapiens, UniProt P10635); assay: Fluorescence-based CYP inhibition, CYP bactosomes; format: in vitro ADME; settings: read-out: CYP Inhibition IC50 2D6
T5 construct: purchased Cypex; host or cells: bacterial membranes (bactosomes)
T5 sequence (P10635 whole entry): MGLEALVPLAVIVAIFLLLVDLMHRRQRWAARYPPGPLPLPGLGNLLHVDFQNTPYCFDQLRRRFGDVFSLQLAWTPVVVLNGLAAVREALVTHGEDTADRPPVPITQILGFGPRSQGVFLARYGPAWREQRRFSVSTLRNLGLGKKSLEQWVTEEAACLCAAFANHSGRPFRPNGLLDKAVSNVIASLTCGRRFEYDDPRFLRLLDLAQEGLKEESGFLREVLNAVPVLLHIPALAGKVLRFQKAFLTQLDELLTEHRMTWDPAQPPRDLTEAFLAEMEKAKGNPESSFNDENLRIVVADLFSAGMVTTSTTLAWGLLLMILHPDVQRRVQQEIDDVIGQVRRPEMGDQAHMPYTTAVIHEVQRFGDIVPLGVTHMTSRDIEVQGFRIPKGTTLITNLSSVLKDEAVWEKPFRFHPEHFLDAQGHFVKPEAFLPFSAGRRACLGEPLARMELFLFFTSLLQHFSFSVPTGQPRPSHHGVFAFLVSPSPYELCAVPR
Method: as §1

## CC[C@H](NC(=O)[C@H]1CN(c2ccc(C(=N)N)cc2)C(=O)O1)c1cccc2ccccc12 [Compound 32, (5R)‐3‐(4‐carbamimidoylphenyl)‐N‐((S)‐1‐(naphthalen‐1‐yl)propyl)‐2‐oxooxazolidine‐5‐carboxamide]
Thermodynamic solubility
  solubility thermodynamic at 5 h: 2300 µM (≈ 958 µg/mL)
[1]
  Mouse CLint: 2.4 mL/min/g
KLK6; relative to 5
  gain in potency for KLK6: ~100 fold
KLK6; synthesized inhibitors (Table 3), 8.6 = assay limit, read-out: KLK6 pIC50 (converted)
  IC50: 0.00251 µM
CYP3A4
  IC50: 4.8 µM
CYP1A2
  IC50: > 10 µM
CYP2C9
  IC50: > 10 µM
CYP2C19
  IC50 at 10 min: 7.9 µM
CYP2D6
  IC50: > 10 µM
